Measured values from PMC6779273, “Emodepside has sex-dependent immobilizing effects on adult Brugia malayi due to a differentially spliced binding pocket in the RCK1 region of the SLO-1 K channel” (PLoS Pathogens, 2019).

What was measured:
[1] = biological target: T1, Bma-SLO-1A (SLO-1 K channel, splice variant A) (Brugia malayi, UniProt A0A0H5S223); assay: two-electrode voltage clamp, Xenopus laevis oocytes expressing slo-1a (small but detectable outward current); type: cell-based
T1 construct: full-length slo-1a splice variant
Excerpt: two-electrode voltage clamp, Xenopus laevis oocytes expressing slo-1a (small but detectable outward current) on Bma-SLO-1A (SLO-1 K channel, splice variant A) | When we expressed slo-1a, or slo-1a with slo-1f (Fig 4C & 4D), we found much smaller, but still detectable currents.

[2] = biological target: T2, Bma-SLO-1F (SLO-1 K channel, splice variant F) (Brugia malayi, UniProt A0A0J9Y9H3); assay: two-electrode voltage clamp, Xenopus laevis oocytes expressing slo-1f (activation of outward current); type: cell-based
T2 construct: full-length slo-1f splice variant

In the case of CC(C)C[C@H]1C(=O)O[C@H](Cc2ccc(N3CCOCC3)cc2)C(=O)N(C)[C@@H](CC(C)C)C(=O)O[C@H](C)C(=O)N(C)[C@@H](CC(C)C)C(=O)O[C@H](Cc2ccc(N3CCOCC3)cc2)C(=O)N(C)[C@@H](CC(C)C)C(=O)O[C@H](C)C(=O)N1C [emodepside], the EC50 [1] is reported as over 30 µM and the EC50 [2] is reported as 5 ± 1 µM.
